Results: publication doi:10.1101/471615v1 (biorxiv, 2018)
pKd: −log10 of the molar value.

Experiments:
Assay in all cases: biochemical
MEK5 = target: T1, MEK5 (Homo sapiens, UniProt Q13163)
T1 sequence (Q13163 1-448): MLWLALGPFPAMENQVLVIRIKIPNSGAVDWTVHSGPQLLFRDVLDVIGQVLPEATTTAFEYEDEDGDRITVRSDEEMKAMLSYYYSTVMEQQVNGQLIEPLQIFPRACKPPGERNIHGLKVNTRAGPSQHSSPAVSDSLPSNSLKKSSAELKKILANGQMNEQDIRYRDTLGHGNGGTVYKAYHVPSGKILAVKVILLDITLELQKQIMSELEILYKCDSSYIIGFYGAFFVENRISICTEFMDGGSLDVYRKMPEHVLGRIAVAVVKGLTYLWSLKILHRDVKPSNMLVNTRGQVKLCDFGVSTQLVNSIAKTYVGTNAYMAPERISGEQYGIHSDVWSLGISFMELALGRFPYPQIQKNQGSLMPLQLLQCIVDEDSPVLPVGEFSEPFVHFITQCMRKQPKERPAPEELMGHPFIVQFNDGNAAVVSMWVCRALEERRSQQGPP

nemo-like kinase, NLK = target: T2, nemo-like kinase, NLK (Homo sapiens, UniProt Q9UBE8)
T2 sequence (Q9UBE8 1-527): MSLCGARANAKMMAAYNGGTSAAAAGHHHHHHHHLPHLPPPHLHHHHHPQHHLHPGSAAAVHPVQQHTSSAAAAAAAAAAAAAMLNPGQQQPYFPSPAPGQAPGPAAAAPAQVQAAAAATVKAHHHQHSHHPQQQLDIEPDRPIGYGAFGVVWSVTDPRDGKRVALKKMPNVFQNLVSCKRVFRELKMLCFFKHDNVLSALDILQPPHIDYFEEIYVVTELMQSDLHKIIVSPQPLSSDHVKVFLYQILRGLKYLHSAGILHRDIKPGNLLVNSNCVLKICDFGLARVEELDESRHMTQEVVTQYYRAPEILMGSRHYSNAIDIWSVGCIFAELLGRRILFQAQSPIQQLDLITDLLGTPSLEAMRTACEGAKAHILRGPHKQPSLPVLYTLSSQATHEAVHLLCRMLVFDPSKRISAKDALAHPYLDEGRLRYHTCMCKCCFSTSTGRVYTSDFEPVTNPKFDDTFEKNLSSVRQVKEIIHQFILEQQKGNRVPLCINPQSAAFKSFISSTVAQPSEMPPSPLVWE

BMPR1B = BMPR1B (Homo sapiens, UniProt O00238)
Sequence of BMPR1B (O00238 whole entry): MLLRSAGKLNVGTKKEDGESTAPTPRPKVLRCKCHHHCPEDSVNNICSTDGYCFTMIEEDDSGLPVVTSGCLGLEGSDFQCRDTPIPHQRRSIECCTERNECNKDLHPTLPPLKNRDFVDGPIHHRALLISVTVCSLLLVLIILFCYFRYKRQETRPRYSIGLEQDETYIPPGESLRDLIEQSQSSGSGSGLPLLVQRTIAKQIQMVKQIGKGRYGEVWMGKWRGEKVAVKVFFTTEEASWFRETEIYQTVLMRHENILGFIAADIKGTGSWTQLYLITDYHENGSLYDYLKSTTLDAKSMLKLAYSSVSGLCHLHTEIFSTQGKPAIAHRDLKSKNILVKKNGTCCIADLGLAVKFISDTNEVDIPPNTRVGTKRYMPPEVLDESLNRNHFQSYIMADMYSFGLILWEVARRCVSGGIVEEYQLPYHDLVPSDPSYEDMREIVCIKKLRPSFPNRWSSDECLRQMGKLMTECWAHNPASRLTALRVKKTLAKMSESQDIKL

TXK = target: T3, TXK (Homo sapiens, UniProt P42681)
T3 sequence (P42681 1-527): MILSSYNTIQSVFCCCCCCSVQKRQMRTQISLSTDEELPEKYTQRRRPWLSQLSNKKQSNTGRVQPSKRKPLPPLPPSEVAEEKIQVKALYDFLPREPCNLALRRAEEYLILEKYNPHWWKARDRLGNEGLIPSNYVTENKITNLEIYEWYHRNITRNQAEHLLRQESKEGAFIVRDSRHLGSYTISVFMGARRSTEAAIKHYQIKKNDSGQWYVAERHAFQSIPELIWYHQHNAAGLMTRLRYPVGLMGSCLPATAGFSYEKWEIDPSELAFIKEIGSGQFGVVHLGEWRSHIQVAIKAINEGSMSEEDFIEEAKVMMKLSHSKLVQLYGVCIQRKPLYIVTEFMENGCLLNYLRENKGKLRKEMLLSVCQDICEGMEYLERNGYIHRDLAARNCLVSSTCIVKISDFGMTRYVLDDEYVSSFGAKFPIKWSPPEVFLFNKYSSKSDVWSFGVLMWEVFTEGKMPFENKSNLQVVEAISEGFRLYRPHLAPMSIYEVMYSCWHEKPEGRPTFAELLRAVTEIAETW

[1] = target: AarF domain containing kinase 3, ADCK3 (Homo sapiens, UniProt Q8NI60)
Sequence of AarF domain containing kinase 3, ADCK3 (Q8NI60 163-647): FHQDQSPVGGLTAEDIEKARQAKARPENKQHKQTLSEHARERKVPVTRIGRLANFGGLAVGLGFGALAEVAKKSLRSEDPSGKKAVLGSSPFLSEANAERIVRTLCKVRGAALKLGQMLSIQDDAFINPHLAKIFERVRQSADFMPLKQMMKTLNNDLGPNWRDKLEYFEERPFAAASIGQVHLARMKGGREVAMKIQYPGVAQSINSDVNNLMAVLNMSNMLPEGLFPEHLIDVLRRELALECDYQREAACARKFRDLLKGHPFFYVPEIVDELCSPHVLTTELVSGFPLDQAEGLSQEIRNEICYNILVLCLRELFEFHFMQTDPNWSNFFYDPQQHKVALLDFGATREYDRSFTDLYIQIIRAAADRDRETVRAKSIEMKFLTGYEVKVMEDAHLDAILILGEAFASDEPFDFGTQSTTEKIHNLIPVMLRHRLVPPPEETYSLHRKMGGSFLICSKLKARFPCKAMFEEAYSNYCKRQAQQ

ACVR1 = target: T4, ACVR1 (Homo sapiens, UniProt Q04771)
T4 sequence (Q04771 1-509): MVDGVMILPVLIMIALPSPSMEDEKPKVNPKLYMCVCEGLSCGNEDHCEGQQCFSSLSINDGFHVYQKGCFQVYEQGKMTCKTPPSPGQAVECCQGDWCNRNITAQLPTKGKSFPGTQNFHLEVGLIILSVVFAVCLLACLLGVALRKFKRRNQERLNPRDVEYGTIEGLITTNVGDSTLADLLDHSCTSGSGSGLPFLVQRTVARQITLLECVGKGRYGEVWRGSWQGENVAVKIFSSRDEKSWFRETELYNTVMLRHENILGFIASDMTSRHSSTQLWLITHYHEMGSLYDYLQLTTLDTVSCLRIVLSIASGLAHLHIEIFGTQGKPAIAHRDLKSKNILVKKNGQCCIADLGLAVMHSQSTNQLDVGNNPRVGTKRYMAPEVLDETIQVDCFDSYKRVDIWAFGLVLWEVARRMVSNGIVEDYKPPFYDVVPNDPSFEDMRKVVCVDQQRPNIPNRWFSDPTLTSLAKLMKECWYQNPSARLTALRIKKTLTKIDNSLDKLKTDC

Measured: pKd

COc1cc(N(C)c2ccnc3ccc(C(F)(F)F)cc23)cc(OC)c1OC [compound 21, negative control (21)]
< 5.00: all assays above
